Common to all, as to experiment: growth of human tumour cells (NCI), 48 h
For experiment [1], the system named is RPMI-8226 leukemia.
For experiment [2], the system named is OVCAR-3 ovarian.
The test system of experiment [3] is NCI-H460 lung.
The test system of experiment [4] is OVCAR-4 ovarian.
Experiment [5] deals with A498 renal.
In experiment [6] the test system is MDA-MB-435.
Experiment [7] has as its system IGROV1 ovarian.
Experiment [8] deals with SNB-19 CNS.
For experiment [9], the system named is 786-0 renal.
Experiment [10] relates to A549 NSCLC.

Where “and” joins values, the source holds several entries; their conditions need not be identical. Identical values can stand only once.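 Each compound was tested at five concentrations against cells in 96-well plates for 48 hours. At the GI50, growth is halved. At the TGI there is no net growth.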

On to `CC1=C(SCCC(=O)OC(C[Se]C2=C(C)C(=O)c3ccccc3C2=O)C(=O)NCCCCCC(=O)OCc2ccccc2)C(=O)c2ccccc2C1=O` (centres undefined), for which the GI50 was 2.65 µM in experiment [1]; 5.01 µM in [2]; 1.9 µM in experiment [3]; 12.3 µM in experiment [4]; 11.9 µM in experiment [5]; 2.13 µM in [6]. Moreover, the GI50 in experiment [7] is 2.13 µM; in experiment [8], 3.82 µM; in [9], 4.68 µM; in experiment [10], 3.95 µM. Further, the TGI in experiment [1] is 7.76 µM; in experiment [2], 18.2 µM; in experiment [3], 4.54 µM; in experiment [4], 25.1 µM; in experiment [5], greater than 100 µM; in experiment [6] it was 13 µM. Further, the TGI in experiment [7] came to 14.5 µM; in [8], 14 µM; in experiment [9] it was 14 µM; in experiment [10], 11.4 µM.

On to `O=C(/C=C\c1ccc([N+](=O)[O-])cc1)c1ccccc(=O)c1O`, for which the TGI in experiment [1] stood at 4.5 µM; in experiment [2] it was 14.4 µM; in experiment [3], 3.64 µM; in experiment [4], 18.1 µM; in experiment [5] it was 9.59 µM; in experiment [6] it was 7.55 µM. The TGI in experiment [7] stood at 4.16 µM; in experiment [8] it was 16.8 µM; in experiment [9] it was 4.05 µM; in [10], 11.9 µM.

As for `COc1ccc(C/C(=C(\C)c2ccc(OCCN3CCCC3)cc2)c2ccc(OCCN3CCCC3)cc2)cc1`, the GI50 in experiment [1] was 1.87 µM; in [2] it was 2 µM; in experiment [3], 2.08 µM; in experiment [4], 2.08 µM; in experiment [5] it was 2.5 µM; in experiment [6] it was 1.7 µM. In addition, the GI50 is 1.87 µM in experiment [7], 2.12 µM in experiment [8], 1.63 µM in experiment [9] and 1.82 µM in [10]. The TGI in experiment [1] was found to be 4.3 µM; in experiment [2], 3.87 µM; in experiment [3], 4.17 µM; in experiment [4], 5.1 µM; in [5], 8.04 µM; in [6], 3.24 µM. Besides, the TGI in experiment [7] came out at 3.97 µM; in experiment [8], 4.75 µM; in [9] it was 3.24 µM; in [10], 3.84 µM.

On to `CC(C)(C)C1CCC2c3c([nH]c4ccccc34)C3C(=O)N(c4ccc(Cl)cc4)C(=O)C3C2C1` (centres undefined), for which the GI50 is 27.2 µM and > 10 µM in [1]; 30.3 µM and > 10 µM in [2]; 37.2 µM and > 10 µM in experiment [3]; 59.5 µM and > 10 µM in experiment [4]; greater than 100 µM in experiment [6]; greater than 100 µM in experiment [7]. Also, the GI50 is greater than 100 µM in experiment [8]; greater than 100 µM in [9]; 67 µM and > 10 µM in [10]. The TGI in experiment [1] was 77 µM and > 10 µM; in [2], greater than 100 µM; in [3] it was greater than 100 µM; in experiment [4], greater than 100 µM; in experiment [5], greater than 10 µM; in experiment [6], greater than 100 µM. Also, the TGI in [7], in [8], in experiment [9] and in experiment [10] was greater than 100 µM throughout.

As for `COc1cc(/C=N/Nc2ncnc3c2cnn3-c2ccccc2)ccc1O`, the GI50 in experiment [1] is greater than 25 µM; in [2] it was 7.18 µM; in experiment [3], 12.9 µM; in experiment [4], 15.5 µM; in [5], greater than 25 µM; in experiment [6] it was 1.41 µM. The GI50 in experiment [7] is 5.03 µM; in [8] it was greater than 25 µM; in experiment [9] it was greater than 16.2 µM; in experiment [10] it was greater than 20.5 µM. The TGI is greater than 25 µM in experiment [1]; greater than 25 µM in experiment [2]; greater than 25 µM in [3]; greater than 25 µM in experiment [4]; greater than 25 µM in experiment [5]; greater than 15.7 µM in experiment [6]. The TGI in experiment [7] was greater than 22.8 µM; in [8] it was greater than 25 µM; in [9], greater than 25 µM; in [10], greater than 25 µM.

Consider `CCOC(=O)Oc1cc2c(c(OC)c1OC)-c1ccc(OC)c(=O)cc1C(NC(C)=O)CC2` (centres undefined), for which the TGI in experiment [1] was 70.6 µM; in experiment [2] it was 0.135 µM; in experiment [3], 6.67 µM; in experiment [4], greater than 100 µM; in [5], 3.38 µM; in [6], 0.0168 µM. Also, the TGI in [7] is greater than 69.6 µM; in experiment [8] it was 92.4 µM; in experiment [9], greater than 100 µM; in experiment [10], greater than 100 µM.

On to `CNC(=O)c1cc(Oc2ccc(NC(=O)Nc3ccc(Cl)c(C(F)(F)F)c3)c(F)c2)ccn1`, for which the GI50 was 1.71 µM and 1.83 µM in experiment [1]; 3.05 µM and 3.03 µM in [2]; 2.67 µM and 2.86 µM in experiment [3]; 2.56 µM and 2.74 µM in experiment [4]; 2.75 µM and 1.82 µM in experiment [5]; 1.56 µM and 1.52 µM in experiment [6]. Also, the GI50 in [7] is 2.75 µM and 1.85 µM; in experiment [8] it was 4.27 µM and 4.06 µM; in experiment [9], 3.39 µM and 3.06 µM; in experiment [10], 2.39 µM and 2.64 µM. The TGI was 4.96 µM and 7.32 µM in [1]; 11.6 µM and > 10 µM in [2]; 9.42 µM and > 10 µM in [3]; 19.7 µM and > 10 µM in [4]; 7.25 µM and 5.73 µM in experiment [5]; 4.8 µM and 4.85 µM in [6]. In addition, the TGI was 11.2 µM and > 10 µM in [7]; greater than 41.6 µM in experiment [8]; greater than 83.2 µM in experiment [9]; greater than 24.1 µM in experiment [10].

`COc1cccc(CC(C)=C(c2ccc(OCCN3CCCCC3)cc2)c2ccc(OCCN3CCCCC3)cc2)c1`: the GI50 was 1.62 µM in experiment [1]; 1.95 µM in experiment [2]; 1.96 µM in experiment [3]; 1.95 µM in [4]; 1.75 µM in experiment [5]; 1.67 µM in experiment [6]. In addition, the GI50 is 1.89 µM in [7], 2.11 µM in experiment [8], 1.87 µM in [9] and 2.2 µM in experiment [10]. In addition, the TGI in experiment [1] came to 4.41 µM; in [2], 4.04 µM; in [3], 3.93 µM; in experiment [4] it was 4.03 µM; in experiment [5], 3.72 µM; in experiment [6] it was 3.57 µM. For the same molecule, the TGI in experiment [7] was 3.99 µM; in [8] it was 4.13 µM; in experiment [9], 3.89 µM; in [10], 4.35 µM.
